Measurements from ChEMBL document CHEMBL1155183, “Synthesis and SAR of 1,4,5,6-tetrahydropyridazines as potent cannabinoid CB1 receptor antagonists” (Bioorg Med Chem Lett, 2009).

What was measured:
Homo sapiens = species on record: Homo sapiens; test: Selectivity ratio of Ki for human CB1 receptor to Ki for human CB2 receptor
Cannabinoid receptor 1 [1] = target: T1, Cannabinoid receptor 1 (Homo sapiens, UniProt P21554); test: Displacement of [3H]CP-55940 from human CB1 receptor expressed in CHO cells; type: cell-based
Cannabinoid receptor 1 [2] = target: T1, Cannabinoid receptor 1; test: Antagonist activity at human CB1 receptor expressed in CHO cells assessed as inhibition of CP-55940-induced [3H]arachidonic acid release; type: functional, cell-based; conditions: read-out: pA2 (converted)
Cannabinoid receptor 2 = Cannabinoid receptor 2 (Homo sapiens, UniProt P34972); test: Displacement of [3H]CP-55940 from human CB2 receptor expressed in CHO cells; type: cell-based
Sequence of Cannabinoid receptor 2 (P34972 whole entry): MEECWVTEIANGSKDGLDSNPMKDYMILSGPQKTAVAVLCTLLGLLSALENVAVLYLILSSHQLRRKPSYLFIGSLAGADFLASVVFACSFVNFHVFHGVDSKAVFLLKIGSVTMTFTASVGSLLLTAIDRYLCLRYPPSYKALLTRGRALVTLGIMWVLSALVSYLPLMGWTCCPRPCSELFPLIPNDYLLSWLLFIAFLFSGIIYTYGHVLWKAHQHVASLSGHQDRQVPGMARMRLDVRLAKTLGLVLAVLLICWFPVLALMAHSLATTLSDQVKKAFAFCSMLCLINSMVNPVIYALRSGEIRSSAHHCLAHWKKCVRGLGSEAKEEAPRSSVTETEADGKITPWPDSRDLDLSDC

T1 sequence (P21554 whole entry): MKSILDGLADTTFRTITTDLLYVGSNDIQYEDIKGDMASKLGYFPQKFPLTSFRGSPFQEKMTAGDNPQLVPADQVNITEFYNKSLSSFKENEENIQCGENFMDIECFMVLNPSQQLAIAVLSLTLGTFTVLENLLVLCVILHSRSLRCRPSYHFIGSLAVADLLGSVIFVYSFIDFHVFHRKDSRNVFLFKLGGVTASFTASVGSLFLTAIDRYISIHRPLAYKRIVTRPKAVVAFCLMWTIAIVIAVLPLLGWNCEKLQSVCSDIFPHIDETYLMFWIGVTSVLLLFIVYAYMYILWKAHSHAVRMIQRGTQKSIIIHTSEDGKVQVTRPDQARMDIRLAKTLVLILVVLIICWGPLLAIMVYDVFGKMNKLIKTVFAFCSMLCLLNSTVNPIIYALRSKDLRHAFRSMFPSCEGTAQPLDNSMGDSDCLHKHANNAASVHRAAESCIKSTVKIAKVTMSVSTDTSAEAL

Ratio Ki (Homo sapiens) | Ki (Cannabinoid receptor 1 [1]) [nM] | Kb (Cannabinoid receptor 1 [2]) [nM] | Ki (Cannabinoid receptor 2) [nM] | SMILES
5 | – | – | – | CN/C(=N\S(=O)(=O)N1CCC(F)(F)CC1)N1CCC(c2ccccc2)C(c2ccc(Cl)cc2)=N1 (stereo not given)
– | 47 | 1 | 247 | CNC(=NS(=O)(=O)N1CCC(F)(F)CC1)N1CCC(c2ccccc2)C(c2ccc(Cl)cc2)=N1 (stereo not given)
– | 74 | 2 | 571 | CNC(=NS(=O)(=O)N1CCCCC1)N1CCC(c2ccccc2)C(c2ccc(Cl)cc2)=N1 (stereo not given)
– | 12.2 | 0.631 | 219 | CN=C(NS(=O)(=O)N1CCC(F)(F)CC1)N1CC(c2ccccc2)C(c2ccc(Cl)cc2)=N1 (stereo not given)
5 | – | – | – | CN/C(=N\S(=O)(=O)N1CCCCC1)N1CCC(c2ccccc2)C(c2ccc(Cl)cc2)=N1 (stereo not given)

SMILES | Ratio Ki (Homo sapiens) | Ki (Cannabinoid receptor 1 [1]) [nM] | Kb (Cannabinoid receptor 1 [2]) [nM] | Ki (Cannabinoid receptor 2) [nM]
CN/C(=N\S(=O)(=O)c1ccc(Cl)cc1)N1CCC(c2ccccc2)C(c2ccc(Cl)cc2)=N1 (stereo not given) | 5 | 43 | 1 | 318
